Data from paper PMC2916918, “Inorganic pyrophosphatase in uncultivable hemotrophic mycoplasmas: identification and properties of the enzyme from Mycoplasma suis” (BMC Microbiology, 2010).

Molecular target: T1, recombinant M. suis sPPase (rPPase) (Mycoplasma suis, UniProt C4RA40)
T1 construct: gene ppa; tetramer (80 kDa) inferred from immunoblot of native cells only
T1 sequence (C4RA40 1-164): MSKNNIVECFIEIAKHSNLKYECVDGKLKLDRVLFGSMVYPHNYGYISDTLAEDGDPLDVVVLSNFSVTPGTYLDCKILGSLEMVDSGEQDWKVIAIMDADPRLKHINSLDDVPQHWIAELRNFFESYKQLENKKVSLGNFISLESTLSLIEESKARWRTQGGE
Experiment: phosphate release, molybdate/ascorbic acid colorimetry (Saheki)
Format: biochemical
Settings: 50 mM MgCl2, pH 9.0, varied PPi (Figure 4E); standard assay: 5 mM Mg2+, 100 mM Tris pH 7.5, 1 mM PPi, 55 °C

O=P(O)(O)OP(=O)(O)O [PPi]
phosphate release, molybdate/ascorbic acid colorimetry (Saheki): Activity of M. suis rPPase using different PPi concentrations.
